Laboratory results reported in patent US8551405B2, “Electrophoretic interactive spectral methods and devices for the detection and/or characterization of biological particles” (The University of North Carolina at Chapel Hill, priority 2004, dated 2013).
Several values for one entry are separate records, joined by “and”; a condition that tells them apart may be missing. Equal values may be shown once. Read-outs that look alike come from different tables or passages of the source.

Key:
activated platelets = experiment: EQELS binding of proteins to thrombin-activated platelets; set-up: species or system human
Description: (§1) Fresh gel-filtered platelets were used in all experiments. Blood from healthy donors was collected in acid-citrate-dextrose and prostacyclin (5 μg/mL, PGI2, Sigma Chemical Co., St. Louis, Mo.). Platelet-rich-plasma was obtained by centrifugation of the anticoagulated blood at 150 g for 15 minutes. […] Gel-filtered platelets were obtained from the application of washed platelets to a Sepharose CL-2B column (Pharamica Inc., Uppsala, Sweden) equilibrated with calcium-free albumin-free Tyrode's buffer. Platelets for light scattering experiments were suspended in buffer containing 20 mM NaCl, 265 mM sucrose, 2 mM HEPES, pH 7.4 and activated with human α-thrombin (0.2 NIH units/mL). See Li, X., Gabriel, D. A. The physical exchange of factor VIII (FVIII) between von Willebrand factor and activated platelets and the effect of the FVIII B-domain on platelet binding (1997) Biochem. J. 36, 10760-10767. […] EQELS spectra of the gel filtered platelets gave a single homogeneous mobility indicating the lack of microparticles. No change is observed in the platelet mobility spectrum on the addition of rFVIIa over the concentration range where rFVIIa would be expected to bind to tissue factor if it was present, indicating an absence of TF in the preparation.
Electrophoretic quasi-elastic light scattering offers the ability to monitor changes in the surface of blood cells resulting from cell activation and ligand binding. Gabriel, D. A., Reece, N., Witte, J., and Muga, K. Electrophoretic light scattering studies on the interaction of fibrinogen with resting and activated human platelets (1993) Blood Coagul. Fibrinolysis 4, 397-403; Johnson, C., and Gabriel, D. A. (1995) Laser Light Scattering, Dover, N.Y. The electrophoretic mobility of activated platelets changes when exposed to a known ligand and that the mobility change is the result of ligand binding. […] Under these experimental conditions, resting gel-filtered platelets have an electrophoretic mobility of −0.9 (μ-cm)/(volt-sec) and activated platelets have a mobility of −0.65(μ-cm)/(volt-sec). Loading the platelet surface with a ligand, such as a FIX or FVIII, changes the platelet electrophoretic mobility. While the absolute mobility varies slightly from donor to donor, there is minimal variation in a given donor. The dependence of the change in the platelet electrophoretic mobility on the addition of FIX permits calculation of the binding constant for FIX to the activated platelet. It is not the magnitude of the change in the platelet electrophoretic mobility, μ, that determines the binding constant, but how the change in μ depends on the concentration of the ligand FIX. The effect of ligand binding on the platelet mobility varies with the ligand, and is dependent on the extent of ligand binding, the extent of surface modification caused by ligand binding, and on the net charge of the ligand itself.
EQELS measurements were made on a multi-angle quasi-elastic light scattering spectrometer (DELSA 440, Coulter Electronics, Inc., Hialeah, Fla.). See Li, X., Gabriel, D. A. Biochem. J. 36, 10760-10767 (1997); Johnson, C., and Gabriel, D. A. (1995) Laser Light Scattering, Dover, N.Y.
Activated platelets and activated FVIII were prepared by activation with 0.2 NIH U/mL human α-thrombin for 5 minutes. After activation, residual thrombin was inactivated by addition of 2.5 μM phenylalanyl prolinyl arginine chloromethyl ketone (PPACK, Calbiochem, La Jolla, Calif.). FIX, FIXa, FVIIIa, and rFVIIa were incubated with platelets for 10 minutes before EQELS measurements.
The binding coefficient (Kd) of the proteins to platelets was determined by fitting the data from the binding experiment to:
[formula] where, μ is the electrophoretic mobility, μ0 is the mobility in the absence of added protein, Δμ is the calculated maximal change in mobility at the saturating concentration of protein. This model assumes one class of binding sites for the specific protein ligand on the platelets. […]

resting platelets = experiment: EQELS binding to resting platelets; set-up: species or system human; details: data not shown
Description: as §1, with “preparation. […]” for “preparation.”

[1] = system: activated platelet surface; details: literature, read-out: Kd, binding to activated platelet surface, cited from earlier work
[2] = target: T1, platelet-bound zymogen FIX (Homo sapiens, UniProt P00740); experiment: EQELS time and concentration dependence of zymogen FIX activation by rFVIIa on activated platelets; type: cell-based; details: FIX 10 nM
T1 construct: made in house
T1 sequence (P00740 29-461 limits assumed): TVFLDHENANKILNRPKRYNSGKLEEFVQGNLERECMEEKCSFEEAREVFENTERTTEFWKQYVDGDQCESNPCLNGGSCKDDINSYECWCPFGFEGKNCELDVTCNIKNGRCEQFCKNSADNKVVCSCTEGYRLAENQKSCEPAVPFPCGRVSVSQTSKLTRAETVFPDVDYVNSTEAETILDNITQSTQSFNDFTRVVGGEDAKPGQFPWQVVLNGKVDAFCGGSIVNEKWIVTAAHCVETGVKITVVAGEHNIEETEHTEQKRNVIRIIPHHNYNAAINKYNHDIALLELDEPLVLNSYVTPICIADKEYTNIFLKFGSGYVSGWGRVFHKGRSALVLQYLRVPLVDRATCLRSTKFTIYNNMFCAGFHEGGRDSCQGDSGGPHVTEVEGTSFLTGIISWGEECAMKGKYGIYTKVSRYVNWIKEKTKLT
Description: FIG. 11A is a graph of the time and concentration dependence of rFVIIa on the activation of zymogen FIX. Platelets were activated with thrombin followed by inhibition of thrombin with PPACK. The activated platelets were then loaded with rFVIIa (0.075 nM, 1 nM, or 10 nM) and monitored as a function of time. The mobility at the initial time (zero) is the mobility for platelets loaded with zymogen FIX. […] Changes in the platelet mobility result from FIX activation.
Zymogen FIX at varying concentrations was added to the thrombin activated platelets that in some experiments included FVIIIa followed by a 10 minute incubation period. After this incubation period, rFVIIa was added to activated platelets coated with zymogen FIX. The EQELS spectrum was then obtained.
A decrease in the […] of FIX was used to detect activation of zymogen FIX by rFVIIa.

[3] = rFVIIa concentration after therapeutic infusion; type: in vivo; details: therapeutic infusion for a bleeding diathesis, estimated
FIX = target: T2, FIX (Homo sapiens, UniProt P00740); experiment: Functional (chromogenic) assay for activation of FIX on activated platelets; type: biochemical
T2 construct: made in house
T2 sequence (P00740 29-461 limits assumed): as above
Description: FIG. 12 is a graph illustrating the amount of FIX activated as a function of time and at different concentrations of rFVIIa (between 0 nM and 49 nM) for a chromogenic assay to show activation of FIX by rFVIIa in the absence of TF.
All assays were run in Tyrodes buffer with 2 mM CaCl2. Platelets were activated with 0.2 NIH units/ml of human α-thrombin for 10 minutes at 37° C. FVIII at 5 units/ml were included with the platelets and thrombin. Thrombin was neutralized with hirudin from a medium titrated against an α-thrombin standard. FVIIa at varying concentrations was added to the platelets for 10 minutes. Plasma concentrations of FIX at 80 nM were added and incubated for varied times. FIXa was assayed in a two stage assay. Platelets with activated FIX were incubated with plasma concentrations of FX for 5 minutes, then the amount of FXa was measured by adding plasma concentrations of prothrombin along with a […] (0.5 mM Perfachrome Th). […] Thrombin generation was measured as the change in the absorbance as the p-nitroanilide substrate was cleaved as a function of time. As expected, substrate cleavage fit a second order pattern and the rate of thrombin generation was determined from the first derivative of the absorbance versus time data.

[4] = 4 mM Ca++, 3 nM FVIIIa, read-out: Binding Coefficient (Kd), interaction with activated platelets
[5] = 4 mM Ca++, No FVIIIa, read-out: Binding Coefficient (Kd), interaction with activated platelets

Activated coagulation factor IX [FIXa]
Kd (activated platelets; [4]): 0.57 nM
Kd (activated platelets; [5]): 1.9 nM
Kd (activated platelets; 4 mM calcium, 3 nM rFVIIIa, read-out: binding constant (Kd) to activated platelets): 0.569 nM and 0.6 nM
Kd (activated platelets; 4 mM calcium, no rFVIIIa, read-out: binding constant (Kd) to activated platelets): 1.9 nM and 2 nM
binding to activated platelets (change in platelet electrophoretic mobility) (activated platelets; absence of calcium): no binding
binding to resting platelets (resting platelets): do not bind
Kd ([1]; in the presence of rFVIIIa): 0.6 nM
Kd ([1]; no rFVIIIa): 2.5 nM

Coagulation factor IX [FIX]
Kd (activated platelets; 10 nM rFVIIa, 4 mM calcium, 3 nM rFVIIIa, read-out: binding coefficient (Kd) for zymogen FIX to activated platelets in presence of rFVIIa): 0.84 nM
Kd (activated platelets; 10 nM rFVIIa, 4 mM calcium, no rFVIIIa, 10 min incubation, read-out: binding coefficient (Kd) for zymogen FIX to activated platelets in presence of rFVIIa): 1.62 nM and 1.6 nM
Kd (activated platelets; [4]): 5.8 nM
Kd (activated platelets; [5]): 7.9 nM
Kd (activated platelets; FIX + FVIIa (10 nM), 4 mM Ca++, No FVIIIa, read-out: Binding Coefficient (Kd) for FIX in the presence of FVIIa, activated platelets): 1.62 nM
binding to resting platelets (resting platelets): do not bind

Recombinant activated coagulation factor Vila [rFVIIa]
activation of zymogen FIX by rFVIIa (EQELS) ([2]; 0.075 nM rFVIIa, approximately 30 minutes): minimal activation
activation of zymogen FIX by rFVIIa (EQELS) ([2]; 1 nM rFVIIa): further activation
conversion of zymogen FIX to activated FIX by rFVIIa (EQELS) ([2]; 10 nM rFVIIa): still more rapid rate
change in platelet mobility on addition of rFVIIa (activated platelets; concentration range where rFVIIa would be expected to bind tissue factor): no change
change in platelet surface charge (activated platelets; conditions identical to FIXa binding experiment): does not change
rFVIIa concentration at which it binds to platelets in the presence of FIX (activated platelets; in the presence of FIX): ≥ 10 nM
change in electrophoretic mobility of platelets on addition of rFVIIa (activated platelets; rFVIIa 0 to 40 nM): did not change
binding of rFVIIa to activated platelets (activated platelets; rFVIIa at 10 nM): does not bind
binding of rFVIIa to activated platelets (activated platelets; rFVIIa greater than 100 nM): can be detected
direct binding of rFVIIa to activated platelet surface (activated platelets; rFVIIa less than 100 nM, even in the presence of calcium): no direct binding
binding of rFVIIa to activated platelets (activated platelets; rFVIIa range of 0.75 to 10 nM): does not bind
Kd (activated platelets; very high rFVIIa concentrations, absence of calcium (unpublished data), read-out: Kd of rFVIIa binding to platelets): 250 nM
Kd (activated platelets; very high rFVIIa concentrations, presence of calcium (unpublished data), read-out: Kd of rFVIIa binding to platelets): 123 nM
concentration of rFVIIa after therapeutic infusion [3]: approximately 30 nM
FXa and thrombin production (FIX; dependent on concentration of added rFVIIa, not shown in FIG. 12): produced
activation of platelet-bound zymogen FIX (chromogenic assay) (FIX; rFVIIa 10, 20, 30, 40 nM, absence of TF): linear in time and directly proportional to the concentration of added rFVIIa
